Source: article PMC6839502 (Journal of Alzheimer's Disease, 2019)

Test: Safety and tolerability
Format: in vivo, human
[1] = 5 mg QD 14 days, healthy adults, 8 evaluable
[2] = 15 mg QD 14 days, healthy adults, 8 evaluable
[3] = 50 mg QD 14 days, healthy adults, 8 evaluable
[4] = 50 mg QD 14 days, healthy older subjects, 10 evaluable
[5] = 125 mg QD 14 days, healthy adults, 12 evaluable
[6] = 125 mg QD 14 days, healthy older subjects, 8 evaluable
[7] = 275 mg QD 14 days, healthy adults, 9 evaluable
[8] = single 3 mg, healthy adults, 5 evaluable
[9] = single 12 mg, healthy adults, 6 evaluable
[10] = single 40 mg, healthy adults, 6 evaluable
[11] = single 160 mg, healthy adults, 6 evaluable
[12] = single 200 mg fed, healthy adults, 6 evaluable
[13] = single 200 mg, healthy adults, 6 evaluable
[14] = single 400 mg, healthy adults, 6 evaluable
[15] = single 540 mg, healthy adults, 6 evaluable
[16] = studies B8271001 and B8271004 overall

C[C@H]1C[C@H]2CSC(N)=N[C@@]2(c2nc(NC(=O)c3ccc(OC(F)F)cn3)cs2)CO1 [PF-06751979]
22: Number of AEs, all-causality treatment-emergent [5]
5 (5): Number of AEs, all-causality treatment-emergent [14] | Number of AEs, treatment related [14]
18: Number of AEs, all-causality treatment-emergent [7]
1: Dizziness, all-causality [4] | Headache (MedDRA preferred term), all-causality [4] | Headache, treatment related [5] | Hepatic enzyme increased, all-causality [5] | Paresthesia, all-causality [5] | Headache (MedDRA preferred term), all-causality [7] | Number of AEs, all-causality treatment-emergent [8] | Number of subjects with AEs, all-causality [8]
13: Number of AEs, treatment related [7]
4: Number of subjects with AEs, treatment related [5] | Number of AEs, treatment related [12]
11: Number of AEs, all-causality treatment-emergent [6]
3 (3): Number of subjects with AEs, all-causality [13] | Number of subjects with AEs, treatment related [13]
6: Number of subjects with AEs, treatment related [4] | Number of AEs, treatment related [5] | Number of subjects with AEs, all-causality [6] | Number of AEs, treatment related [15] | Number of subjects with AEs, all-causality [15]
3: Headache (MedDRA preferred term), all-causality [5] | Musculoskeletal discomfort, all-causality [5] | Number of AEs, treatment related [13] | Number of subjects with AEs, treatment related [15]
7: Number of subjects with AEs, all-causality [4] | Number of AEs, treatment related [6] | Number of subjects with AEs, treatment related [7] | Number of AEs, all-causality treatment-emergent [12]
0: Back pain, all-causality [1] | Fatigue (MedDRA preferred term), all-causality [1] | Headache (MedDRA preferred term), all-causality [1] | Hepatic enzyme increased, all-causality [1] | Insomnia, all-causality [1] | Musculoskeletal discomfort, all-causality [1] | Number of subjects with SAEs [1] | Number of subjects with discontinuation due to AEs [1] | Number of subjects with severe AEs [1] | Number of subjects with temporary discontinuation or dose reduction due to AEs [1] | Paresthesia, all-causality [1] | Procedural pain, all-causality [1] | Back pain, all-causality [2] | Fatigue (MedDRA preferred term), all-causality [2] | Insomnia, all-causality [2] | Musculoskeletal discomfort, all-causality [2] | Number of subjects with SAEs [2] | Number of subjects with discontinuation due to AEs [2] | Number of subjects with severe AEs [2] | Number of subjects with temporary discontinuation or dose reduction due to AEs [2] | Paresthesia, all-causality [2] | Procedural pain, all-causality [2] | Back pain, all-causality [3] | Fatigue (MedDRA preferred term), all-causality [3] | Headache (MedDRA preferred term), all-causality [3] | Hepatic enzyme increased, all-causality [3] | Insomnia, all-causality [3] | Musculoskeletal discomfort, all-causality [3] | Number of subjects with SAEs [3] | Number of subjects with discontinuation due to AEs [3] | Number of subjects with severe AEs [3] | Number of subjects with temporary discontinuation or dose reduction due to AEs [3] | Paresthesia, all-causality [3] | Procedural pain, all-causality [3] | Dizziness, treatment related [4] | Headache, treatment related [4] | Number of subjects with SAEs [4] | Number of subjects with discontinuation due to AEs [4] | Number of subjects with severe AEs [4] | Number of subjects with temporary discontinuation or dose reduction due to AEs [4] | Back pain, treatment related [5] | Hepatic enzyme increased, treatment related [5] | Musculoskeletal discomfort, treatment related [5] | Number of subjects with SAEs [5] | Number of subjects with discontinuation due to AEs [5] | Number of subjects with severe AEs [5] | Number of subjects with temporary discontinuation or dose reduction due to AEs [5] | Paresthesia, treatment related [5] | Procedural pain, treatment related [5] | Abnormal dreams, all-causality [6] | Dizziness, all-causality [6] | Number of subjects with SAEs [6] | Number of subjects with discontinuation due to AEs [6] | Number of subjects with severe AEs [6] | Number of subjects with temporary discontinuation or dose reduction due to AEs [6] | Back pain, all-causality [7] | Fatigue (MedDRA preferred term), all-causality [7] | Headache, treatment related [7] | Insomnia, all-causality [7] | Musculoskeletal discomfort, treatment related [7] | Number of subjects with SAEs [7] | Number of subjects with severe AEs [7] | Number of subjects with temporary discontinuation or dose reduction due to AEs [7] | Procedural pain, all-causality [7] | Fatigue (MedDRA preferred term), all-causality [8] | Headache (MedDRA preferred term), all-causality [8] | Number of AEs, treatment related [8] | Number of subjects with AEs, treatment related [8] | Number of subjects with SAEs [8] | Number of subjects with discontinuation due to AEs [8] | Number of subjects with severe AEs [8] | Number of subjects with temporary discontinuation or dose reduction due to AEs [8] | Fatigue (MedDRA preferred term), all-causality [9] | Headache (MedDRA preferred term), all-causality [9] | Number of AEs, all-causality treatment-emergent [9] | Number of subjects with AEs, all-causality [9] | Number of subjects with SAEs [9] | Number of subjects with discontinuation due to AEs [9] | Number of subjects with severe AEs [9] | Number of subjects with temporary discontinuation or dose reduction due to AEs [9] | Fatigue (MedDRA preferred term), all-causality [10] | Headache (MedDRA preferred term), all-causality [10] | Number of AEs, all-causality treatment-emergent [10] | Number of subjects with AEs, all-causality [10] | Number of subjects with SAEs [10] | Number of subjects with discontinuation due to AEs [10] | Number of subjects with severe AEs [10] | Number of subjects with temporary discontinuation or dose reduction due to AEs [10] | Fatigue (MedDRA preferred term), all-causality [11] | Headache (MedDRA preferred term), all-causality [11] | Number of AEs, all-causality treatment-emergent [11] | Number of subjects with AEs, all-causality [11] | Number of subjects with SAEs [11] | Number of subjects with discontinuation due to AEs [11] | Number of subjects with severe AEs [11] | Number of subjects with temporary discontinuation or dose reduction due to AEs [11] | Headache (MedDRA preferred term), all-causality [12] | Number of subjects with SAEs [12] | Number of subjects with discontinuation due to AEs [12] | Number of subjects with severe AEs [12] | Number of subjects with temporary discontinuation or dose reduction due to AEs [12] | Headache (MedDRA preferred term), all-causality [13] | Number of subjects with SAEs [13] | Number of subjects with discontinuation due to AEs [13] | Number of subjects with severe AEs [13] | Number of subjects with temporary discontinuation or dose reduction due to AEs [13] | Fatigue (MedDRA preferred term), all-causality [14] | Number of subjects with SAEs [14] | Number of subjects with discontinuation due to AEs [14] | Number of subjects with severe AEs [14] | Number of subjects with temporary discontinuation or dose reduction due to AEs [14] | Fatigue (MedDRA preferred term), all-causality [15] | Number of subjects with SAEs [15] | Number of subjects with discontinuation due to AEs [15] | Number of subjects with severe AEs [15] | Number of subjects with temporary discontinuation or dose reduction due to AEs [15]
2 (2): Number of AEs, all-causality treatment-emergent [2] | Number of AEs, treatment related [2] | Number of subjects with AEs, all-causality [2] | Number of subjects with AEs, treatment related [2] | Abnormal dreams, all-causality [4] | Abnormal dreams, treatment related [4] | Fatigue (MedDRA preferred term), all-causality [5] | Fatigue, treatment related [5] | Fatigue (MedDRA preferred term), all-causality [13] | Fatigue, treatment related [13] | Number of subjects with AEs, all-causality [14] | Number of subjects with AEs, treatment related [14] | Headache (MedDRA preferred term), all-causality [15] | Headache, treatment related [15]
moderate maculopapular rash: Rash leading to discontinuation, one subject (275 mg QD, 6 h post-dose on Day 11, deemed treatment related)
4 (4): Number of subjects with AEs, all-causality [12] | Number of subjects with AEs, treatment related [12]
no SAEs or deaths were reported: SAEs or deaths [16]
5.6 ×ULN: AST peak, one subject (15 mg QD, Day 21)
8: Number of subjects with AEs, all-causality [7]
15: Number of AEs, all-causality treatment-emergent [4]
10: Number of subjects with AEs, all-causality [5] | Number of AEs, all-causality treatment-emergent [15]
5: Number of subjects with AEs, treatment related [6] | Number of AEs, all-causality treatment-emergent [13]
2: Back pain, all-causality [5] | Procedural pain, all-causality [5] | Musculoskeletal discomfort, all-causality [7]
1 (1): Number of AEs, all-causality treatment-emergent [1] | Number of AEs, treatment related [1] | Number of subjects with AEs, all-causality [1] | Number of subjects with AEs, treatment related [1] | Headache (MedDRA preferred term), all-causality [2] | Headache, treatment related [2] | Hepatic enzyme increased, all-causality [2] | Hepatic enzyme increased, treatment related [2] | Number of AEs, all-causality treatment-emergent [3] | Number of AEs, treatment related [3] | Number of subjects with AEs, all-causality [3] | Number of subjects with AEs, treatment related [3] | Fatigue (MedDRA preferred term), all-causality [4] | Fatigue, treatment related [4] | Insomnia, all-causality [5] | Insomnia, treatment related [5] | Fatigue (MedDRA preferred term), all-causality [6] | Fatigue, treatment related [6] | Headache (MedDRA preferred term), all-causality [6] | Headache, treatment related [6] | Hepatic enzyme increased, all-causality [7] | Hepatic enzyme increased, treatment related [7] | Number of subjects with discontinuation due to AEs [7] | Number of subjects with discontinuation due to AEs, treatment related [7] | Paresthesia, all-causality [7] | Paresthesia, treatment related [7] | Fatigue (MedDRA preferred term), all-causality [12] | Fatigue, treatment related [12] | Headache (MedDRA preferred term), all-causality [14] | Headache, treatment related [14]
9: Number of AEs, treatment related [4]
7.7 ×ULN: ALT peak, one subject (15 mg QD, Day 21)
mild to moderate: Severity of TEAEs [16]
no clinically meaningful findings: Findings in ECGs or vital signs (studies B8271001 and B8271004)
1.15 x ULN: AST elevation, one subject (275 mg QD, Day 14, after discontinuation on Day 11)
